The source of these data is US6878711B2, “Indole derivatives as PDE5-inhibitors” (Lilly Icos LLC, priority 2000, dated 2005).

One data set concerns the target human recombinant PDE5 (Homo sapiens, UniProt O76074). Nature of the data set: Inhibitory effect on cGMP-PDE (one-step assay, 8-[H3]-cGMP).
Another data set deals with T1, PDE5 (bovine aorta) (Bos taurus, UniProt Q28156).
T1 construct: from tissue; host or cells: bovine aorta
The data set is described as follows: Inhibitory effect on cGMP-PDE, enzyme from bovine aorta. The class given is biochemical. Conditions: vs. bovine aorta. From the text:
Biophys. Acta, 384, 430 (1975).

As a reminder, the melting point is the temperature of the solid-liquid transition. As to `CN1CC(=S)N2[C@H](c3ccc4c(c3)OCO4)c3[nH]c4ccccc4c3C[C@@H]2C1=S`, the melting point lay in the range of 158 to 162 °C. Usually IC50 stands for the concentration needed to halve the response being measured. In the case of `CN1CCN2[C@H](c3ccc4c(c3)OCO4)c3[nH]c4ccccc4c3C[C@@H]2C1=O` [Example 1, (6R,12aR)-6-Benzo[1,3]dioxol-5-yl-2-methyl-3,4,6,7,12,12a-hexahydro-2H-pyrazino[1′,2′:1,6]pyrido[3,4-b]indole-1-one], the IC50 at human recombinant PDE5 is 54 nM.

For `CN1CCN2[C@@H](c3ccc4c(c3)OCO4)c3[nH]c4ccccc4c3C[C@@H]2C1=O` [Example 2, (6S,12aR)-6-Benzo[1,3]dioxol-5-yl-2-methyl-3,4,6,7,12,12a-hexahydro-2H-pyrazino-[1′2′:1,6]pyrido[3,4-b]indol-1-one], on human recombinant PDE5, the half-inhibitory concentration (IC50) was found to be 575 nM.

Take `CN1CCN2[C@@H](c3ccc4c(c3)OCO4)c3[nH]c4ccccc4c3C[C@H]2C1=O` [Example 3]: the concentration for half-maximal inhibition (IC50) against PDE5 (bovine aorta) is 100 nM.

Consider `O=C1CNC[C@H]2Cc3c([nH]c4ccccc34)[C@@H](c3ccc4c(c3)OCO4)N12` [Example 4], for which the IC50 at human recombinant PDE5 worked out at 2.3 nM. In the case of `CN1CC(=S)N2[C@H](c3ccc4c(c3)OCO4)c3[nH]c4ccccc4c3C[C@H]2C1=S` [Example 6, (6R,12aS)-6-Benzo[1,3]dioxol-5-yl-2-methyl 2,3,6,7,12,12a-hexahydropyrazino[1′,2′:1,6]pyrido[3,4-b]indole-1,4-dithione], the melting point was 177 to 182 °C.
